Source: patent US20050250801A1, “Method of treating cancer with azaspirane compositions” (priority 2003, published 2005)
Where two headings read alike, the source gives them in different places.

Key:
Assay in all cases: NCI in vitro SRB assay, Breast Cancer
Format in all cases: cell-based
MDA-MB-435 = settings: for CC50 / GI50: Homo sapiens
Protocol: (§1) An in vitro assay which tested the ability of N,N,-diethyl-8,8-dipropyl-2-azaspiro[4,5]decane-2-propanamine dimaleate (Compound 1) to inhibit the growth of known cancer cell lines was performed by the National Cancer Institute in accordance with standard procedures. See: Lin, Z. X., Hoult, J. R., and Raman, A. Sulphorhodamine B assay for measuring proliferation of a pigmented melanocyte cell line and its application to the evaluation of crude drugs used in the treatment of vitiligo. J Ethnopharmacol. 66: 141-150, 1999. Briefly, selected tumor cell lines were cultured in media containing five different concentrations of Compound 1. After 48 hours of continuous exposure, a sulforhodamine B (SRB) assay was used to estimate cell viability or growth via optical measurements.
(§2) From the measurements, the following values were determined: 1) the concentration of Compound 1 at which a tumor cell growth inhibition of 50% (relative to control) occurs (GI50), 2) the concentration of Compound 1 at which no growth occurs (total growth inhibition, TGI), and 3) the concentration of Compound 1 at which the […] (LC 50). […] FIG. 6 illustrates, graphically, tumor cell growth as a function of Compound 1 concentration of the scanned tumor cell lines.

MDA-MB-231/ATCC = settings: for GI50 / CC50: Homo sapiens
Protocol: as §1, §2

HS 578T = settings: for CC50 / GI50: Homo sapiens; for CC50: Hs-578T
Protocol: as §1, §2

NCI/ADR-RES = settings: for GI50: Homo sapiens
Protocol: as §1, §2

[1] = MDA-MB-435, Log10 conc -4.0 Moles/L
[2] = MDA-MB-435, Log10 conc -5.0 Moles/L
[3] = MDA-MB-435, Log10 conc -6.0 Moles/L
[4] = MDA-MB-435, Log10 conc -7.0 Moles/L
[5] = MDA-MB-435, Log10 conc -8.0 Moles/L
[6] = MDA-MB-231/ATCC, Log10 conc -4.0 Moles/L
[7] = MDA-MB-231/ATCC, Log10 conc -5.0 Moles/L
[8] = MDA-MB-231/ATCC, Log10 conc -6.0 Moles/L
[9] = MDA-MB-231/ATCC, Log10 conc -7.0 Moles/L
[10] = MDA-MB-231/ATCC, Log10 conc -8.0 Moles/L
[11] = HS 578T, Log10 conc -4.0 Moles/L
[12] = HS 578T, Log10 conc -5.0 Moles/L
[13] = HS 578T, Log10 conc -6.0 Moles/L
[14] = HS 578T, Log10 conc -7.0 Moles/L
[15] = HS 578T, Log10 conc -8.0 Moles/L

CCCC1(CCC)CCC2(CCN(CCCN(CC)CC)C2)CC1.O=C(O)/C=C\C(=O)O.O=C(O)/C=C\C(=O)O [Compound 1, N,N,-diethyl-8,8-dipropyl-2-azaspiro[4,5]decane-2-propanamine dimaleate]
CC50 (MDA-MB-435; MDA-MB-435, read-out: LC50): 6.19 µM | CC50 (MDA-MB-435; MDA-MB-435, read-out: Log10 LC50 (converted)): 5.89 µM | GI50 (MDA-MB-435; MDA-MB-435, read-out: GI50): 267 nM | GI50 (MDA-MB-435; MDA-MB-435 (so in the source), read-out: Log10 GI50 (converted)): 1780 nM | TGI (MDA-MB-435; MDA-MB-435): 807 nM | Log10 TGI (MDA-MB-435; MDA-MB-435 (so in the source)): −5.49 | Mean Optical Densities (MDA-MB-435; [1]): 0.244 | Percent Growth (MDA-MB-435; [1]): −58% | Mean Optical Densities (MDA-MB-435; [2]): 0.230 | Percent Growth (MDA-MB-435; [2]): −61% | Mean Optical Densities (MDA-MB-435; [3]): 0.528 | Percent Growth (MDA-MB-435; [3]): −10% | Mean Optical Densities (MDA-MB-435; [4]): 1.517 | Percent Growth (MDA-MB-435; [4]): 94% | Mean Optical Densities (MDA-MB-435; [5]): 1.613 | Percent Growth (MDA-MB-435; [5]): 104% | GI50 (MDA-MB-231/ATCC; MDA-MB-231, MDA-MB-231/ATCC, read-out: GI50): 1090 nM | GI50 (MDA-MB-231/ATCC; MDA-MB-231, line printed "231/ATCC" (second line of the wrapped name), read-out: Log10 GI50 (converted)): 1860 nM | GI50 (MDA-MB-231/ATCC; MDA-MB-231, line printed "MDA-MB-" (first line of MDA-MB-231/ATCC), read-out: Log10 GI50 (converted)): 1100 nM | CC50 (MDA-MB-231/ATCC; MDA-MB-231, read-out: LC50, MDA-MB-231/ATCC): 5.18 µM | CC50 (MDA-MB-231/ATCC; MDA-MB-231, read-out: Log10 LC50, line printed "231/ATCC" (second line of the wrapped name) (converted)): 8.51 µM | CC50 (MDA-MB-231/ATCC; MDA-MB-231, read-out: Log10 LC50, line printed "MDA-MB-" (first line of MDA-MB-231/ATCC) (converted)): 5.13 µM | TGI (MDA-MB-231/ATCC; MDA-MB-231/ATCC): 2.37 µM | Mean Optical Densities (MDA-MB-231/ATCC; [6]): 0.038 | Percent Growth (MDA-MB-231/ATCC; [6]): −94% | Mean Optical Densities (MDA-MB-231/ATCC; [7]): 0.053 | Percent Growth (MDA-MB-231/ATCC; [7]): −92% | Mean Optical Densities (MDA-MB-231/ATCC; [8]): 0.839 | Percent Growth (MDA-MB-231/ATCC; [8]): 55% | Mean Optical Densities (MDA-MB-231/ATCC; [9]): 0.863 | Percent Growth (MDA-MB-231/ATCC; [9]): 63% | Mean Optical Densities (MDA-MB-231/ATCC; [10]): 0.897 | Percent Growth (MDA-MB-231/ATCC; [10]): 75% | Log10 TGI (MDA-MB-231/ATCC; line printed "231/ATCC" (second line of the wrapped name)): −5.40 | Log10 TGI (MDA-MB-231/ATCC; line printed "MDA-MB-" (first line of MDA-MB-231/ATCC)): −5.63 | TGI (HS 578T; HS 578T): 3.96 µM | Log10 TGI (HS 578T; HS 578T (so in the source)): −6.09 | Mean Optical Densities (HS 578T; [11]): 0.264 | Percent Growth (HS 578T; [11]): −62% | Mean Optical Densities (HS 578T; [12]): 0.269 | Percent Growth (HS 578T; [12]): −61% | Mean Optical Densities (HS 578T; [13]): 1.217 | Percent Growth (HS 578T; [13]): 91% | Mean Optical Densities (HS 578T; [14]): 1.258 | Percent Growth (HS 578T; [14]): 98% | Mean Optical Densities (HS 578T; [15]): 1.206 | Percent Growth (HS 578T; [15]): 89% | CC50 (HS 578T; read-out: LC50): 8.43 µM | CC50 (HS 578T; read-out: Log10 LC50 (converted)): 6.17 µM | GI50 (HS 578T; HS 578T (so in the source), read-out: Log10 GI50 (converted)): 269 nM | GI50 (HS 578T; HS 578T, read-out: GI50): 1860 nM | Log10 TGI (NCI/ADR-RES): −5.40 | TGI (NCI/ADR-RES): 3.95 µM | GI50 (NCI/ADR-RES; read-out: GI50): 1830 nM | GI50 (NCI/ADR-RES; read-out: Log10 GI50 (converted)): 1820 nM | Mean Optical Densities (NCI/ADR-RES; Log10 conc -4.0 Moles/L): 0.081 | Percent Growth (NCI/ADR-RES; Log10 conc -4.0 Moles/L): −85% | Mean Optical Densities (NCI/ADR-RES; Log10 conc -5.0 Moles/L): 0.208 | Percent Growth (NCI/ADR-RES; Log10 conc -5.0 Moles/L): −61% | Mean Optical Densities (NCI/ADR-RES; Log10 conc -6.0 Moles/L): 1.220 | Percent Growth (NCI/ADR-RES; Log10 conc -6.0 Moles/L): 89% | Mean Optical Densities (NCI/ADR-RES; Log10 conc -7.0 Moles/L): 1.227 | Percent Growth (NCI/ADR-RES; Log10 conc -7.0 Moles/L): 90% | Mean Optical Densities (NCI/ADR-RES; Log10 conc -8.0 Moles/L): 1.254 | Percent Growth (NCI/ADR-RES; Log10 conc -8.0 Moles/L): 94%
